Patent US11028054B2, “1, 4, 6-trisubstituted-2-alkyl-1H-benzo[d]imidazole derivatives as dihydroorotate oxygenase inhibitors” (Merck Patent GmbH, priority 2017, dated 2021)

What follows are molecules tested against DHODH (Homo sapiens (Human), UniProt Q02127) (assay: Measurement of DHODH inhibitory enzyme activity (coupled DCIP reduction assay)).
Format: biochemical
Excerpt: Measurement of DHODH Inhibitory Enzyme Activity (In Vitro Assays)
The DHODH activity assay is a coupled enzyme assay in which oxidation of DHO and subsequent reduction of ubiquinone are stoichiometrically equivalent to the reduction of DCIP ([…]). The reduction of DCIP is accompanied by a loss of absorbance at 610 nm.
Reagents used: L-Dihydroorotic acid, Sigma, D7128, 2,6-Dichloroindophenol sodium salt hydrate, sigma, D1878 Dimethyl sulfoxide (DMSO), spectroscopic grade purchased from Spectrochem, cat no. 0704209, B. no.—3183650 Decylubiquinone, Sigma, D7911.
Preparation of Solutions/Reagents:
Buffer Preparation: 50 mM tris HCl, 150 mM KCl, and pH 8.0, 0.8% triton.
L-Dihydroorotic acid stock solution of 20 mM in buffer.
2, 6-Dichloroindophenol Sodium salt hydrate stock solution of 20 mM in buffer.
Decylubiquinone stock solution of 20 mM in buffer.
5 μL of Dimethyl sulfoxide or a compound of formula (I) in DMSO solution was added to the wells of a 96 well plate. Compounds of formula (I) were measured at 10 μM.
Protein along with buffer was added, so that the total volume including the DMSO was 87 μL. Compound and protein were incubated for half an hour at room temperature after mixing. 5 μL of 20 mM solution of L-Dihydroorotic acid, 5 μL of 2 mM solution of Decylubiquinone and 3 μL of 2 mM solution of 2, 6-Dichloroindophenol sodium salt hydrate were added to the above solution (total assay volume 100 μL). The mixture was stirred for 2 min and absorbance was recorded at every 10 min at 610 nanometers.
Percent inhibition is calculated as follows 100*{(Abs610 for reaction containing compound)−(Abs610 for positive control) (Abs610 for no enzyme reaction)−(Abs610 for positive control) Reaction containing compound has compound, buffer, enzyme and substrates Positive control contains DMSO, buffer, enzyme and substrates No Enzyme reaction contains DMSO, buffer and substrates IC50 determination: A 2 mM DMSO stock solution of the selected 1, 4, 6-trisubstituted-2-alkyl-1H-benzo[d]imidazole derivatives of formula (I) of the present invention to be examined was prepared. Subsequent ⅓rd dilutions were made as follows:
5 μL of each stock of compound of formula (I) (solution indicated in column 4 of table) was used for each 100 μL assay. Therefore, 5 μL of the 2 mM stock provided 100 μL of 100 μM solution of compound of formula (I), when made up with buffer, protein and substrate. See also: Ulrich et al. (2001) Eur. J. Biochem. 268, 1861-1868.

Chain of DHODH (Q02127 whole entry): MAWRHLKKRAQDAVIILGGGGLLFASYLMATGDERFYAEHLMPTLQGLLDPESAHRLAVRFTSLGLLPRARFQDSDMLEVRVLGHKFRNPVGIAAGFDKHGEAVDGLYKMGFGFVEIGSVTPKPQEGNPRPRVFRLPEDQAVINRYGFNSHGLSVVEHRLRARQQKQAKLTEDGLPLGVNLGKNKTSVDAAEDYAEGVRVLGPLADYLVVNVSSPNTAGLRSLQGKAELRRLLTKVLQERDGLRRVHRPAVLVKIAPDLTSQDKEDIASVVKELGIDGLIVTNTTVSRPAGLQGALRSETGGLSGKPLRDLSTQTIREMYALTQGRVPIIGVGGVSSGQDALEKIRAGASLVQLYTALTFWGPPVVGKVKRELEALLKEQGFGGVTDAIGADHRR

| Structure (SMILES) | IC50 |
| --- | --- |
| Cc1nc2c(C(=O)O)cc(-c3c(F)c(F)c(-c4ccc(CN5CCCC5)cc4)c(F)c3F)cc2[nH]1 [Example 62, 2-methyl-6-(2,3,5,6-tetrafluoro-4'-(pyrrolidin-1-ylmethyl)-[1,1'-biphenyl]-4-yl)-1H-benzo[d]imidazole-4-carboxylic acid.2,2,2-trifluoroacetic acid] | 10 to 99 nM |
| Cc1nc2c(C(=O)O)cc(-c3c(F)c(F)c(-c4ccc(CN5CCCC(F)(F)C5)cc4)c(F)c3F)cc2[nH]1 [Example 64, 6-(4'-((3,3-difluoropiperidin-1-yl)methyl)-2,3,5,6-tetrafluoro-[1,1'-biphenyl]-4-yl)-2-methyl-1H-benzo[d]imidazole-4-carboxylic acid.2,2,2-trifluoroacetic acid] | 1 to 9.9 nM |
| Cc1nc2c(C(=O)O)cc(-c3ccc(-c4c(C)cccc4C)cc3)cc2[nH]1 [Example 145, 6-(2',6'-dimethyl-[1,1'-biphenyl]-4-yl)-2-methyl-1H-benzo[d]imidazole-4-carboxylic acid] | 10 to 99 nM |
| Cc1nc2c(C(=O)O)cc(-c3ccc(-c4ccccc4CN4CCCC4)cc3)cc2[nH]1 [Example 46, 2-methyl-6-(2'-(pyrrolidin-1-ylmethyl)-[1,1'-biphenyl]-4-yl)-1H-benzo[d]imidazole-4-carboxylic acid.2,2,2-trifluoroacetic acid] | 1 to 9.9 nM |
| COc1cccc(-c2ccc(-c3cc(C(=O)O)c4nc(C)[nH]c4c3)cc2)c1F [Example 21, 6-(2'-fluoro-3'-methoxy-[1,1'-biphenyl]-4-yl)-2-methyl-1H-benzo[d]imidazole-4-carboxylic acid] | 10 to 99 nM |
| Cc1nc2c(C(=O)O)cc(-c3c(F)c(F)c(-c4ccccc4)c(F)c3F)cc2[nH]1 [Example 52, 2-methyl-6-(2,3,5,6-tetrafluoro-[1,1'-biphenyl]-4-yl)-1H-benzo[d]imidazole-4-carboxylic acid] | 1 to 9.9 nM |
| Cc1nc2c(C(=O)O)cc(-c3c(F)c(F)c(-c4cccc(CO)c4)c(F)c3F)cc2[nH]1 [Example 57, 2-methyl-6-(2,3,5,6-tetrafluoro-3'-(hydroxymethyl)-[1,1'-biphenyl]-4-yl)-1H-benzo[d]imidazole-4-carboxylic acid.2,2,2-trifluoroacetic acid] | 1 to 9.9 nM |
| Cc1nc2c(C(=O)O)cc(-c3ccc(-c4ccccc4CN4CC[C@@H](F)C4)cc3)cc2[nH]1 [Example 117, (R)-6-(2'-((3-fluoropyrrolidin-1-yl)methyl)-[1,1'-biphenyl]-4-yl)-2-methyl-1H-benzo[d]imidazole-4-carboxylic acid.2,2,2-trifluoroacetic acid] | 1 to 9.9 nM |
| Cc1nc2c(C(=O)O)cc(-c3ccc(-c4ccc(O)cc4)cc3)cc2[nH]1 [Example 20, 6-(4'-hydroxy-[1,1'-biphenyl]-4-yl)-2-methyl-1H-benzo[d]imidazole-4-carboxylic acid] | 10 to 99 nM |
| Cc1nc2c(C(=O)O)cc(-c3ccc(-c4ccccc4O)cc3)cc2[nH]1 [Example 23, 6-(2'-hydroxy-[1,1'-biphenyl]-4-yl)-2-methyl-1H-benzo[d]imidazole-4-carboxylic acid] | 10 to 99 nM |
| Cc1nc2c(C(=O)O)cc(-c3c(F)c(F)c(-c4cccc(CN5CCCCC5)c4)c(F)c3F)cc2[nH]1 [Example 56, 2-methyl-6-(2,3,5,6-tetrafluoro-3'-(piperidin-1-ylmethyl)-[1,1'-biphenyl]-4-yl)-1H-benzo[d]imidazole-4-carboxylic acid.2,2,2-trifluoroacetic acid] | 1 to 9.9 nM |
| Cc1nc2c(C(=O)O)cc(-c3ccc(-n4c(C)ccc4C)cc3)cc2[nH]1 [Example 111, 6-(4-(2,5-dimethyl-1H-pyrrol-1-yl)phenyl)-2-methyl-1H-benzo[d]imidazole-4-carboxylic acid] | 1 to 9.9 nM |
| Cc1nc2c(C(=O)O)cc(-c3ccc(-c4c(F)cccc4CN4CCCC4)cc3)cc2[nH]1 [Example 150, 6-(2'-fluoro-6'-(pyrrolidin-1-ylmethyl)-[1,1'-biphenyl]-4-yl)-2-methyl-1H-benzo[d]imidazole-4-carboxylic acid.2,2,2-trifluoroacetic acid] | 1 to 9.9 nM |
| Cc1nc2c(C(=O)O)cc(-c3c(F)c(F)c(-c4ccccc4CN4CCCCC4)c(F)c3F)cc2[nH]1 [Example 53, 2-methyl-6-(2,3,5,6-tetrafluoro-2'-(piperidin-1-ylmethyl)-[1,1'-biphenyl]-4-yl)-1H-benzo[d]imidazole-4-carboxylic acid.2,2,2-trifluoroacetic acid] | 1 to 9.9 nM |
| Cc1nc2c(C(=O)O)cc(-c3c(F)c(F)c(-c4cccc(CNC(C)C)c4)c(F)c3F)cc2[nH]1 [Example 59, 2-methyl-6-(2,3,5,6-tetrafluoro-3'-((isopropylamino)methyl)-[1,1'-biphenyl]-4-yl)-1H-benzo[d]imidazole-4-carboxylic acid.2,2,2-trifluoroacetic acid] | 10 to 99 nM |
| Cc1nc2c(C(=O)O)cc(-c3ccc(-c4ccccc4CN4CCOCC4)cc3)cc2[nH]1 [Example 45, 2-methyl-6-(2'-(morpholinomethyl)-[1,1'-biphenyl]-4-yl)-1H-benzo[d]imidazole-4-carboxylic acid.2,2,2-trifluoroacetic acid] | 10 to 99 nM |
| Cc1nc2c(C(=O)O)cc(-c3c(F)c(F)c(-c4ccc(CN5CCS(=O)(=O)CC5)cc4)c(F)c3F)cc2[nH]1 [Example 65, 6-(4'-((1,1-dioxidothiomorpholino)methyl)-2,3,5,6-tetrafluoro-[1,1'-biphenyl]-4-yl)-2-methyl-1H-benzo[d]imidazole-4-carboxylic acid.2,2,2-trifluoroacetic acid] | 1 to 9.9 nM |
| Cc1nc2c(C(=O)O)cc(-c3c(F)c(F)c(-c4ccc(CN5CCCCC5)cc4)c(F)c3F)cc2[nH]1 [Example 61, 2-methyl-6-(2,3,5,6-tetrafluoro-4'-(piperidin-1-ylmethyl)-[1,1'-biphenyl]-4-yl)-1H-benzo[d]imidazole-4-carboxylic acid.2,2,2-trifluoroacetic acid] | 1 to 9.9 nM |
| Cc1nc2c(C(=O)O)cc(-c3c(F)c(F)c(-c4cccc(CNC5CC5)c4)c(F)c3F)cc2[nH]1 [Example 60, 6-(3'-((cyclopropylamino)methyl)-2,3,5,6-tetrafluoro-[1,1'-biphenyl]-4-yl)-2-methyl-1H-benzo[d]imidazole-4-carboxylic acid.2,2,2-trifluoroacetic acid] | 1 to 9.9 nM |
| Cc1nc2c(C(=O)O)cc(-c3ccc(-c4cccc(OCc5ccccc5)c4)cc3)cc2[nH]1 [Example 15, 6-(3'-(benzyloxy)-[1,1'-biphenyl]-4-yl)-2-methyl-1H-benzo[d]imidazole-4-carboxylic acid] | 10 to 99 nM |
| Cc1nc2c(C(=O)O)cc(-c3ccc(-c4ccccc4OCc4ccccc4)cc3)cc2[nH]1 [Example 17, 6-(2'-(benzyloxy)-[1,1'-biphenyl]-4-yl)-2-methyl-1H-benzo[d]imidazole-4-carboxylic acid] | 10 to 99 nM |
| Cc1nc2c(C(=O)O)cc(-c3c(F)c(F)c(-n4c(C)ccc4C)c(F)c3F)cc2[nH]1 [Example 67, 6-(4-(2,5-dimethyl-1H-pyrrol-1-yl)-2,3,5,6-tetrafluorophenyl)-2-methyl-1H-benzo[d]imidazole-4-carboxylic acid] | 1 to 9.9 nM |
| Cc1nc2c(C(=O)O)cc(-c3ccc(-c4cccc(F)c4F)cc3)cc2[nH]1 [Example 4, 6-(2',3'-difluoro-[1,1'-biphenyl]-4-yl)-2-methyl-1H-benzo[d]imidazole-4-carboxylic acid] | > 100 nM |
| Cc1nc2c(C(=O)O)cc(-c3ccc(OCc4ccccc4)cc3)cc2[nH]1 [Example 69, 6-(4-(benzyloxy)phenyl)-2-methyl-1H-benzo[d]imidazole-4-carboxylic acid] | 1 to 9.9 nM |
| Cc1nc2c(C(=O)O)cc(-c3ccc(-c4cccc(CO)c4)cc3)cc2[nH]1 [Example 90, 6-(3'-(hydroxymethyl)-[1,1'-biphenyl]-4-yl)-2-methyl-1H-benzo[d]imidazole-4-carboxylic acid] | 10 to 99 nM |
| Cc1nc2c(C(=O)O)cc(-c3ccc(-c4cccc(CN5CCS(=O)(=O)CC5)c4)cc3)cc2[nH]1 [Example 36, 6-(3'-((1,1-dioxidothiomorpholino)methyl)-[1,1'-biphenyl]-4-yl)-2-methyl-1H-benzo[d]imidazole-4-carboxylic acid.2,2,2-trifluoroacetic acid] | 10 to 99 nM |
| Cc1nc2c(C(=O)O)cc(-c3ccc(-c4ccccc4CN4CCCCC4)cc3)cc2[nH]1 [Example 42, 2-methyl-6-(2'-(piperidin-1-ylmethyl)-[1,1'-biphenyl]-4-yl)-1H-benzo[d]imidazole-4-carboxylic acid.2,2,2-trifluoroacetic acid] | 10 to 99 nM |
